According to patent US12077503B2, “Substituted cyclic amides and their use as herbicides” (FMC CORPORATION, priority 2015, dated 2024):

Key:
Type in all cases: in vivo
[1] = system: ragweed (common ragweed, Ambrosia elatior); experiment: Test A preemergence
In short: (§1)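 Compounds were formulated in a non-phytotoxic solvent mixture with surfactant and applied as a preemergence directed soil spray after seeding, or sprayed postemergence over plants 2 to 10 cm tall at the one- to two-leaf stage. Evaluation after about 10 d compared treated with untreated controls, using a scale from 0 (no effect) to 100 (complete control).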

[2] = system: giant foxtail (Setaria faberii); experiment: Test A preemergence
In short: as §1

Kochia (Kochia scoparia) [3] = experiment: Test A preemergence
In short: as §1

[4] = system: barnyardgrass (Echinochloa crus-galli); experiment: Test A preemergence
In short: as §1

[5] = system: ryegrass, Italian (Italian ryegrass, Lolium multiflorum); experiment: Test A preemergence
In short: as §1

[6] = system: pigweed (Amaranthus retroflexus); experiment: Test A preemergence
rice (Oryra sativa) = experiment: Test B flooded paddy test; settings: Flood; for Plant response rating, Rice: 0 to 100 scale where 0 is no effect and 100 is complete control, 13 to 15 d
In short: (§2)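 Evaluation by eye, against controls, occurred 13–15 d post-treatment in a greenhouse, using a 0 (no effect) to 100 (complete control) scale. Application was into the paddy water, 3 cm deep over the soil, on 2-leaf plants.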

[7] = system: barnyardgrass (Echinochloa crus-galli); experiment: Test B flooded paddy test; settings: Flood; for Plant response rating, Barnyardgrass: 0 to 100 scale where 0 is no effect and 100 is complete control, 13 to 15 d
In short: as §2

[8] = system: sedge, umbrella (small-flower umbrella sedge, Cyperus difformis); experiment: Test B flooded paddy test; settings: Flood, 0 to 100 scale where 0 is no effect and 100 is complete control; for Plant response rating, Sedge, Umbrella: 13 to 15 d
In short: as §2

[9] = system: ducksalad (Heteranthera limosa); experiment: Test B flooded paddy test; settings: Flood; for Plant response rating, Ducksalad: 0 to 100 scale where 0 is no effect and 100 is complete control, 13 to 15 d
In short: as §2

corn (Zea mays) = experiment: Test A postemergence; settings: for Corn plant response rating: visual injury rating on 0 to 100 scale (0 no effect, 100 complete control)
In short: as §1

[10] = system: ragweed (common ragweed, Ambrosia elatior); experiment: Test A postemergence; settings: for Ragweed plant response rating: visual injury rating on 0 to 100 scale (0 no effect, 100 complete control)
In short: as §1

[11] = system: giant foxtail (Setaria faberii); experiment: Test A postemergence; settings: for Foxtail, Giant plant response rating: visual injury rating on 0 to 100 scale (0 no effect, 100 complete control)
In short: as §1

Kochia (Kochia scoparia) [12] = experiment: Test A postemergence; settings: for Kochia plant response rating: visual injury rating on 0 to 100 scale (0 no effect, 100 complete control)
In short: as §1

[13] = system: wheat (Triticum aestivum); experiment: Test A postemergence; settings: for Wheat plant response rating: visual injury rating on 0 to 100 scale (0 no effect, 100 complete control)
In short: as §1

[14] = system: barnyardgrass (Echinochloa crus-galli); experiment: Test A postemergence; settings: for Barnyardgrass plant response rating: visual injury rating on 0 to 100 scale (0 no effect, 100 complete control)
In short: as §1

[15] = system: blackgrass (Alopecurus myosuroides); experiment: Test A postemergence; settings: for Blackgrass plant response rating: visual injury rating on 0 to 100 scale (0 no effect, 100 complete control)
In short: as §1

[16] = system: ryegrass, Italian (Italian ryegrass, Lolium multiflorum); experiment: Test A postemergence; settings: for Ryegrass, Italian plant response rating: visual injury rating on 0 to 100 scale (0 no effect, 100 complete control)
In short: as §1

[17] = system: pigweed (Amaranthus retroflexus); experiment: Test A postemergence; settings: for Pigweed plant response rating: visual injury rating on 0 to 100 scale (0 no effect, 100 complete control)
In short: as §1

[18] = system: Galium (catchweed bedstraw, Galium aparine); experiment: Test A postemergence; settings: for Galium plant response rating: visual injury rating on 0 to 100 scale (0 no effect, 100 complete control)
In short: as §1

[19] = 125 g ai/ha, preemergence, 0 to 100 scale (0 no effect, 100 complete control)
[20] = Preemergence, 500 g ai/ha, visual injury approx. 10 d
[21] = 125 g ai/ha, postemergence, approx. 10 d
[22] = 500 g ai/ha, postemergence, 0 to 100 scale, 0 no effect, 100 complete control
[23] = Preemergence, 500 g ai/ha, 0 is no effect, 100 is complete control
[24] = Postemergence, 125 g ai/ha, visual injury, 0 to 100 scale (0 no effect, 100 complete control), approx. 10 d
[25] = 125 g ai/ha, Preemergence, visual injury rating after approximately 10 d
[26] = 500 g ai/ha, preemergence, visual injury rating about 10 d after treatment, 0 to 100 scale (0 no effect, 100 complete control)
[27] = 250 g ai/ha, scale of 0 to 100 where 0 is no effect and 100 is complete control
[28] = 125 g ai/ha, Postemergence, visual injury after approximately 10 d, 0 to 100 scale where 0 is no effect and 100 is complete control

COc1ccc(NC(=O)C2C(=O)NCC2c2ccc(F)c(F)c2)c(F)c1 (centres unmarked) [Compound 413]
0: Plant response rating, Ragweed [1, 19] | Ragweed plant response rating (0 to 100 scale, 0 is no effect, 100 is complete control) [1, 20] | Plant response rating, Foxtail, Giant [2, 19] | Foxtail, Giant plant response rating (0 to 100 scale, 0 is no effect, 100 is complete control) [2, 20] | Plant response rating, Kochia (Kochia (Kochia scoparia) [3]; [19]) | Kochia plant response rating (0 to 100 scale, 0 is no effect, 100 is complete control) (Kochia (Kochia scoparia) [3]; [20]) | Plant response rating, Barnyardgrass [4, 19] | Barnyardgrass plant response rating (0 to 100 scale, 0 is no effect, 100 is complete control) [4, 20] | Plant response rating, Ryegrass, Italian [5, 19] | Ryegrass, Italian plant response rating (0 to 100 scale, 0 is no effect, 100 is complete control) [5, 20] | Plant response rating, Pigweed [6, 19] | Pigweed plant response rating (0 to 100 scale, 0 is no effect, 100 is complete control) [6, 20] | Plant response rating, Rice (rice (Oryra sativa); 500 g ai/ha) | Plant response rating, Barnyardgrass ([7]; 500 g ai/ha) | Plant response rating, Sedge, Umbrella ([8]; 500 g ai/ha) | Plant response rating, Ducksalad ([9]; 500 g ai/ha) | Corn plant response rating (corn (Zea mays); [21]) | Plant response rating, Corn (corn (Zea mays); [22]) | Ragweed plant response rating [10, 21] | Plant response rating, Ragweed [10, 22] | Foxtail, Giant plant response rating [11, 21] | Plant response rating, Foxtail, Giant [11, 22] | Kochia plant response rating (Kochia (Kochia scoparia) [12]; [21]) | Plant response rating, Kochia (Kochia (Kochia scoparia) [12]; [22]) | Wheat plant response rating [13, 21] | Plant response rating, Wheat [13, 22] | Barnyardgrass plant response rating [14, 21] | Plant response rating, Barnyardgrass [14, 22] | Blackgrass plant response rating [15, 21] | Plant response rating, Blackgrass [15, 22] | Ryegrass, Italian plant response rating [16, 21] | Plant response rating, Ryegrass, Italian [16, 22] | Pigweed plant response rating [17, 21] | Plant response rating, Pigweed [17, 22] | Galium plant response rating [18, 21] | Plant response rating, Galium [18, 22]

O=C1NCC(c2ccccc2-c2ccccc2)C1C(=O)Nc1cccc(F)c1F (racemic) [Compound 379]
0: Plant response rating, Ragweed [1, 19] | Ragweed plant response rating (0 to 100 scale) [1, 23] | Plant response rating, Foxtail, Giant [2, 19] | Plant response rating, Kochia (Kochia (Kochia scoparia) [3]; [19]) | Kochia plant response rating (0 to 100 scale) (Kochia (Kochia scoparia) [3]; [23]) | Plant response rating, Barnyardgrass [4, 19] | Plant response rating, Ryegrass, Italian [5, 19] | Ryegrass, Italian plant response rating (0 to 100 scale) [5, 23] | Plant response rating, Pigweed [6, 19] | Pigweed plant response rating (0 to 100 scale) [6, 23] | Plant response rating, Rice (rice (Oryra sativa); 250 g ai/ha) | Plant response rating, Barnyardgrass ([7]; 250 g ai/ha) | Plant response rating, Sedge, Umbrella ([8]; 250 g ai/ha) | Plant response rating, Ducksalad ([9]; 250 g ai/ha) | Plant response rating, Corn (corn (Zea mays); [22]) | Plant response rating, Corn (corn (Zea mays); [24]) | Plant response rating, Ragweed [10, 22] | Plant response rating, Ragweed [10, 24] | Plant response rating, Foxtail, Giant [11, 24] | Plant response rating, Kochia (Kochia (Kochia scoparia) [12]; [22]) | Plant response rating, Kochia (Kochia (Kochia scoparia) [12]; [24]) | Plant response rating, Wheat [13, 22] | Plant response rating, Wheat [13, 24] | Plant response rating, Barnyardgrass [14, 24] | Plant response rating, Blackgrass [15, 22] | Plant response rating, Blackgrass [15, 24] | Plant response rating, Ryegrass, Italian [16, 22] | Plant response rating, Ryegrass, Italian [16, 24] | Plant response rating, Pigweed [17, 22] | Plant response rating, Pigweed [17, 24] | Plant response rating, Galium [18, 22] | Plant response rating, Galium [18, 24]
50: Plant response rating, Barnyardgrass [14, 22]
20: Plant response rating, Foxtail, Giant [11, 22]
30: Barnyardgrass plant response rating (0 to 100 scale) [4, 23]
40: Foxtail, Giant plant response rating (0 to 100 scale) [2, 23]

Cc1c(F)cccc1NC(=O)[C@H]1C(=O)NC[C@@H]1c1ccc2c(c1)OCO2 (stereo in doubt) [Compound 989]
80: Plant response rating, Barnyardgrass [14, 28]
70: Foxtail, Giant plant response rating (0 to 100 scale, 0 is no effect, 100 is complete control) [2, 25] | Barnyardgrass plant response rating (0 to 100 scale, 0 is no effect, 100 is complete control) [4, 25]
15: Barnyardgrass plant response rating [7, 27]
40: Ragweed plant response rating [1, 26]
0: Ragweed plant response rating (0 to 100 scale, 0 is no effect, 100 is complete control) [1, 25] | Kochia plant response rating (0 to 100 scale, 0 is no effect, 100 is complete control) (Kochia (Kochia scoparia) [3]; [25]) | Ryegrass, Italian plant response rating (0 to 100 scale, 0 is no effect, 100 is complete control) [5, 25] | Ryegrass, Italian plant response rating [5, 26] | Pigweed plant response rating (0 to 100 scale, 0 is no effect, 100 is complete control) [6, 25] | Pigweed plant response rating [6, 26] | Rice plant response rating (rice (Oryra sativa); [27]) | Sedge, Umbrella plant response rating ([8]; 250 g ai/ha) | Plant response rating, Corn (corn (Zea mays); [28]) | Plant response rating, Ragweed [10, 28] | Plant response rating, Kochia (Kochia (Kochia scoparia) [12]; [28]) | Plant response rating, Wheat [13, 28] | Plant response rating, Blackgrass [15, 28] | Plant response rating, Ryegrass, Italian [16, 28] | Plant response rating, Pigweed [17, 28]
100: Ducksalad plant response rating [9, 27]
90: Foxtail, Giant plant response rating [2, 26] | Kochia plant response rating (Kochia (Kochia scoparia) [3]; [26]) | Barnyardgrass plant response rating [4, 26]
20: Plant response rating, Galium [18, 28]
50: Plant response rating, Foxtail, Giant [11, 28]

Cc1c(F)ccc(NC(=O)C2C(=O)NCC2c2cc(F)cc(F)c2)c1F (centres unmarked) [Compound 461]
80: Foxtail, Giant plant response rating [11, 21] | Plant response rating, Foxtail, Giant [11, 22] | Barnyardgrass plant response rating [14, 21]
100: Plant response rating, Ducksalad ([9]; 250 g ai/ha)
60: Plant response rating, Barnyardgrass ([7]; 250 g ai/ha)
0: Plant response rating, Ragweed [1, 19] | Ragweed plant response rating (0 to 100 scale, 0 is no effect, 100 is complete control) [1, 20] | Plant response rating, Kochia (Kochia (Kochia scoparia) [3]; [19]) | Plant response rating, Pigweed [6, 19] | Pigweed plant response rating (0 to 100 scale, 0 is no effect, 100 is complete control) [6, 20] | Plant response rating, Rice (rice (Oryra sativa); 250 g ai/ha) | Plant response rating, Sedge, Umbrella ([8]; 250 g ai/ha) | Corn plant response rating (corn (Zea mays); [21]) | Plant response rating, Corn (corn (Zea mays); [22]) | Ragweed plant response rating [10, 21] | Plant response rating, Ragweed [10, 22] | Kochia plant response rating (Kochia (Kochia scoparia) [12]; [21]) | Plant response rating, Kochia (Kochia (Kochia scoparia) [12]; [22]) | Wheat plant response rating [13, 21] | Plant response rating, Wheat [13, 22] | Blackgrass plant response rating [15, 21] | Plant response rating, Blackgrass [15, 22] | Ryegrass, Italian plant response rating [16, 21] | Pigweed plant response rating [17, 21] | Plant response rating, Pigweed [17, 22] | Galium plant response rating [18, 21]
70: Plant response rating, Barnyardgrass [4, 19]
90: Plant response rating, Foxtail, Giant [2, 19] | Foxtail, Giant plant response rating (0 to 100 scale, 0 is no effect, 100 is complete control) [2, 20] | Barnyardgrass plant response rating (0 to 100 scale, 0 is no effect, 100 is complete control) [4, 20] | Plant response rating, Barnyardgrass [14, 22]
50: Kochia plant response rating (0 to 100 scale, 0 is no effect, 100 is complete control) (Kochia (Kochia scoparia) [3]; [20])
20: Plant response rating, Ryegrass, Italian [5, 19] | Ryegrass, Italian plant response rating (0 to 100 scale, 0 is no effect, 100 is complete control) [5, 20] | Plant response rating, Ryegrass, Italian [16, 22] | Plant response rating, Galium [18, 22]
